Read-outs that look alike come from different tables or passages of the source.
Legend:
Format in all cases: cell-based, human
[1] = system: T cells initially stimulated with AQP4 p63-76 or ABC-TP
[2] = system: T cells from NMO patients; assay: T cell proliferation by CFSE dilution (cell division index); conditions: for proliferative T cell response to individual AQP4 peptides: NMO patients, CFSE dilution, peptides 10 μg/ml, 10 d, FIG. 1D
[3] = system: CD4+CFSElow proliferating T cells; assay: Intracellular IL-17 and IFN-γ staining of proliferating antigen-specific CD4+ T cells; conditions: for frequencies of IL-17+ single- and IL-17+IFN-γ+ double-positive (Th17) cells: NMO patients in comparison to HC, PMA/Ionomycin 5 h, FIG. 4A, B
Description: (§1) Single-cell suspensions were incubated with human serum to prevent nonspecific antibody binding, then stained with anti-CD3, -CD4, -CD8, -CD25, -MHC Class II, -CD40, -CD80, and -CD86 (eBioscience and BD Bioscience). Intracellular cytokine production by CD4^+ T cells and APC was analyzed by monitoring the expression of IFN-γ, IL-17, IL-6, IL-1β and IL-10 (1:100) (eBioscience). Foxp3 staining was performed according to the manufacturer's protocol (eBioscience). For intracellular cytokine staining, T cells were stimulated with phorbol 12-myristate 13-acetate (PMA, 50 ng/ml) plus ionomycin (500 ng/ml) in the presence of GolgiStop (1 μl/ml) (BD Biosciences). CD14^+ cells were stimulated with LPS (1 μg/ml; Sigma-Aldrich) for 4 or 20 h in the presence of GolgiStop. Cells were analyzed by flow cytometry on a FACS Canto flow cytometer (BD Biosciences).
FIG. 4A-4D. […] PBMC were stained with CFSE and cultured for 10 d with AQP4 peptides (10 μg/ml) or rhAQP4 (5 μg/ml). (Panel A) CD4^+CFSE^low proliferating T cells were analyzed for IL-17 and IFN-γ production by intracellular staining after stimulation with PMA/Ionomycin for 5 h. (Panel B) Frequencies of IL17^+IFN-γ^−, IL17^+IFN-γ^+ and IL17^−IFN-γ^+ were examined among proliferating p61-80-specific CD4^+ T cells (n=8 NMO and n=5 HC), p156-170-specific CD4^+ T cells (n=6 NMO and n=3 HC) and rhAQP4-specific CD4^+ T cells (n=6 NMO and n=5 HC). Frequencies of IL-17- and IFN-γ-single positive T cells were used to calculate Th17/Th1 ratio. (Panel C) PBMC were examined by FACS for expression of Treg markers including CD4, CD127 and CD25. (Panel D) CFSE-labeled PBMC were cultured for 10 d with AQP4 p61-80 (10 μg/ml) or rhAQP4 (5 μg/ml). Proliferating CD4^+ T cells (CDI>2) were examined by FACS for expression of CD25^high, defined as the top half of CD25^+ cells, and Foxp3 (n=8 NMO p61-80, n=6 HC p61-80, n=7 NMO rhAQP4 and n=5 HC rhAQP4). Box-and-whisker plots include the median, distribution and range. **P<0.01 Mann-Whitney U test.

[4] = system: peripheral blood mononuclear cells (PBMC); assay: PBMC proliferation by [3H]thymidine incorporation, primary cultures; conditions: for proliferative responses of NMO patients to individual AQP4 peptides: peptides 10 μg/ml, 6 d, [3H]thymidine, FIG. 1B
[5] = system: AQP4 p61-80-specific T cells; assay: Epitope mapping: recall proliferation of AQP4 p61-80-reactive T cells to truncated peptides; conditions: NMO patients, peptides 10 μg/ml, irradiated autologous APC, [3H]thymidine after 3 d, FIG. 3A, 3B
[6] = system: T cells initially stimulated with rhAQP4; assay: Antigen recall proliferation after initial stimulation with rhAQP4
[7] = system: proliferating CD4+ T cells; assay: Treg (CD25high Foxp3) frequency among proliferating antigen-specific CD4+ T cells; conditions: NMO patients versus HC, FIG. 4D
Description: as §1
FIG. 4A-4D. […] PBMC were stained with CFSE and cultured for 10 d with AQP4 peptides (10 μg/ml) or rhAQP4 (5 μg/ml). (Panel A) CD4^+CFSE^low proliferating T cells were analyzed for IL-17 and IFN-γ production by intracellular staining after stimulation with PMA/Ionomycin for 5 h. (Panel B) Frequencies of IL17^+IFN-γ^−, IL17^+IFN-γ^+ and IL17^−IFN-γ^+ were examined among proliferating p61-80-specific CD4^+ T cells (n=8 NMO and n=5 HC), p156-170-specific CD4^+ T cells (n=6 NMO and n=3 HC) and rhAQP4-specific CD4^+ T cells (n=6 NMO and n=5 HC). […]

[8] = PBMC from 4 NMO patients, primed 10 d at 10 μg/ml, [3H]thymidine after 3 d, FIG. 3E

Q: Which “recall proliferation of ABC-TP p204-217-primed T cells” value [1, 8] does the source give for “AGHGLLVELIITFQL (synthetic poypeptide) [p156-170]” here?
A: not observed

Q: What about the “recall proliferation of AQP4 p63-76-primed T cells” value [1, 8] of the same substance?
A: not observed

Q: What about the “proliferative T cell response to individual AQP4 peptides” value (“proliferative T cell response” for short) [2] of the same substance?
A: T cell responses were observed

Q: And the “frequencies of IL-17+ single- and IL-17+IFN-γ+ double-positive (Th17) cells” value [3]?
A: No Th17 bias

Q: What about the “proliferative responses of NMO patients to individual AQP4 peptides” value (“proliferative responses of NMO patients” for short) [4] of the same substance?
A: T cell determinants were identified

Q: For “DMVLISLCFGLS (synthetic poypeptide) [p69-80]”, which “proliferation of AQP4 p61-80-specific T cells to truncated peptides” value (“proliferation … to truncated peptides” for short) [5] is on record?
A: less efficiently than p63-80

Q: “EKPLPVDMVLISLC (listed as Homo sapiens) [p63-76]” was tested. Which “proliferation … to truncated peptides” value [5] did it give?
A: nearly as efficiently

Q: And the “recall proliferation of ABC-TP p204-217-primed T cells” value [1, 8]?
A: vice versa

Q: With FIILPVSMVLISLV [ABC-TP p204-217] as the substance, how does the “recall proliferation of AQP4 p63-76-primed T cells” value [1] read?
A: proliferated

Q: What about the “proliferation of T cells from NMO patients” value [2] of the same substance?
A: proliferated significantly

Q: For “GILYLVTPPSVVGGLGVTMV (synthetic poypeptide) [p131-150]”, which “proliferative responses of NMO patients” value [4] is on record?
A: T cell determinants were identified

Q: “GTEKPLPVDMVL (synthetic poypeptide) [p61-72]” was tested. Which “proliferation … to truncated peptides” value [5] did it give?
A: not

Q: For “GTEKPLPVDMVLIS (synthetic poypeptide) [p61-74]”, which “proliferation … to truncated peptides” value [5] is on record?
A: not

Q: Which “proliferation … to truncated peptides” value [5] does the source give for “GTEKPLPVDMVLISLC (synthetic poypeptide) [p61-76]” here?
A: proliferated

Q: For “GTEKPLPVDMVLISLCFG (synthetic poypeptide) [p61-78]”, which “proliferation … to truncated peptides” value [5] is on record?
A: proliferated

Q: For “PLPVDMVLISLCFGLS (synthetic poypeptide) [p65-80]”, which “proliferation … to truncated peptides” value [5] is on record?
A: less efficiently than p63-80

Q: For “PVDMVLISLCFGLS (synthetic poypeptide) [p67-80]”, which “proliferation … to truncated peptides” value [5] is on record?
A: less efficiently than p63-80

Q: Which results are given for “RFKEAFSKAAQQTKGSYMEV (synthetic poypeptide) [p261-280]”?
A: proliferative T cell response to individual AQP4 peptides [2]: T cell responses were observed; proliferative responses of NMO patients to individual AQP4 peptides [4]: not detected

Q: Which “proliferative responses of NMO patients” value [4] does the source give for “SMNPARSFGPAVIMGNWENH (synthetic poypeptide) [p211-230]” here?
A: T cell determinants were identified

Q: Which “proliferative T cell response” value [2] does the source give for “p11-30: synthetic overlapping AQP4 20-mer peptide, amino acids 11-30 of human AQP4 (GKCGPLCTRENIMVAFKGVW; UniProt P55087 11-30, looked up, fragment)” here?
A: T cell responses were observed

Q: What about the “proliferative responses of NMO patients” value [4] of the same substance?
A: not detected

Q: How did the “proliferative T cell response” value [2] turn out when “p21-40: synthetic overlapping AQP4 20-mer peptide, amino acids 21-40 of human AQP4 (NIMVAFKGVWTQAFWKAVTA; UniProt P55087 21-40, looked up, fragment)” was run?
A: T cell responses were observed

Q: And the “proliferative responses of NMO patients” value [4]?
A: T cell determinants were identified

Q: With “p61-80: peptide of amino acids position 61 to position 80 of human AQP-4 protein sequence (GTEKPLPVDMVLISLCFGLS)” as the substance, how does the “proportion of CD4+ T cells that responded” value ([2]; NMO patients versus HC, FIG. 1E) read?
A: higher in NMO patients than HC

Q: What about the “proliferative T cell response” value [2] of the same substance?
A: robust proliferative T cell response

Q: What about the “frequencies of IL-17+ single- and IL-17+IFN-γ+ double-positive (Th17) cells” value [3] of the same substance?
A: significantly higher frequencies

Q: What about the Th17/Th1 ratio ([3]; NMO patients versus HC) of the same substance?
A: elevated

Q: What about the “proliferative responses of NMO patients” value [4] of the same substance?
A: T cell determinants were identified

Q: What about the “immunodominance among peptides examined” value [6] of the same substance?
A: clearly immunodominant

Q: Which results are given for “rhAQP4: Full length recombinant human AQP4 (1-323) expressed in Pichia pastoris”?
A: frequency of Treg among antigen-specific T cells [7]: significantly reduced frequency; frequencies of IL-17+ single- and IL-17+IFN-γ+ double-positive (Th17) cells [3]: not significant

Q: With “tetanus toxoid: Tetanus toxoid obtained from List Biological Laboratories, Inc. [reference compound]” as the substance, how does the “response to tetanus toxoid, HC compared with NMO patients” value ([4]; lymphocytes from healthy controls) read?
A: comparable responses

— patent US9234017B2, “Aquaporin-4 peptide compositions and methods of use thereof” (The Regents of the University of California, priority 2012, dated 2016)
